We go through six compounds from US5599793A, “Antithromobotic agents” (Eli Lilly and Company, priority 1995, dated 1997).

One assay has as its target T1, Plasmin (Homo sapiens, UniProt P00747).
T1 construct: Human plasmin is purchased; purchased Boehringer Mannheim, Indianapolis, Ind
In words: Serine protease selectivity, chromogenic substrate (Kass), plasmin. Format: biochemical. The note with it: substrate H-D-Val-Leu-Lys-p-nitroanilide. As for the experimental part: (§1) The assay is carried out by mixing 50 μL buffer (0.03M Tris, 0.15M NaCl, pH 7.4) with 25 μL of bovine thrombin or human thrombin solution (0.21 mg/mL of thrombostat bovine thrombin, Parke-Davis, or purified human thrombin, Enzyme Research Laboratories, South Bend, Ind., at about 8 NIH units/mL, in the same buffer) and 25 μL of test compound in a solvent (in 50% aqueous methanol, v:v). The 150 μL of an aqueous solution of the chromogenic substrate (at 0.25 mg/mL) are added and the rates of hydrolysis of the substrate are measured by monitoring the reactions at 405 nm for the release of p-nitroaniline. Standard curves are constructed by plotting free thrombin concentration against hydrolysis rate. The hydrolysis rates observed with test compounds are then converted to "free thrombin" values in the respective assays by use of the standard curves. The bound thrombin (bound to test compound) is calculated by subtracting the amount of free thrombin observed in each assay from the known initial amount of thrombin used in the assay. The amount of free inhibitor in each assay is calculated by subtracting the number of moles of bound thrombin from the number of moles of added inhibitor (test compound).
(§2) Kass is calculated for a range of concentrations of test compounds and the mean value is reported in units of liter per mole.
(§3) By substantially following the procedures described above for human thrombin, and using other human blood coagulation system serine proteases and proteases of the fibrinolytic system with the appropriate chromogenic substrates, identified below, selectivity of the compounds of the present invention with respect to the coagulation factor serine proteases and with respect to the fibrinolytic system serine proteases are evaluated as well as their substantial lack of interference with serine proteases of the fibrinolytic system. Thrombin inhibitors preferably should spare fibrinolysis induced by urokinase, tissue plasminogen activator (t-PA) and streptokinase. This would be important to the therapeutic use of such agents as an adjunct to streptokinase, t-PA or urokinase thrombolytic therapy and to the use of such agents as an endogenous fibrinolysis-sparing (with respect to t-PA and urokinase) antithrombotic agent. In addition to the lack of interference with the amidase activity of the fibrinolytic proteases, such fibrinolytic system sparing can be studied by the use of human plasma clots and their lysis by the respective fibrinolytic plasminogen activators.
(§4) Human plasmin is purchased from Boehringer Mannheim, Indianapolis, Ind.; nt-PA is purchased as single chain activity reference from American Diagnostica, Greenwich, Conn.; modified-t-PA6 (mt-PA6) is prepared at Eli Lilly and Company by procedure known in the art (See, Burck, et al., J. Biol. Chem., 265, […] (1990). Plasmin chromogenic substrate H-D-Val-Leu-Lys-p-nitroanilide and tissue plasminogen activator (t-PA) substrate H-D-Ile-Pro-Arg-p-nitroanilide are purchased from Kabi Vitrum, Stockholm, Sweden.

Another assay deals with T2, Trypsin (Bos taurus, UniProt P00760).
T2 construct: Bovine trypsin is purchased; purchased Worthington Biochemicals, Freehold, N.J
T2 sequence (P00760 24-246): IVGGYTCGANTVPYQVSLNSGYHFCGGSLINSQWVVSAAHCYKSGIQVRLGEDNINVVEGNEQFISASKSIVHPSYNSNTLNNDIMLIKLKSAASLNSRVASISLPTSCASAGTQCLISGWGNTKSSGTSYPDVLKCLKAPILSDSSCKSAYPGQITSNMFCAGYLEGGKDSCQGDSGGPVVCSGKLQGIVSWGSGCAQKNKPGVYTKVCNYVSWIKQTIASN
Kind of assay: Serine protease selectivity, chromogenic substrate (Kass), trypsin. Format: biochemical, bovine. Conditions: substrate N-Benzoyl-Phe-Val-Arg-p-nitroanilide. As for the experimental part: as §1, §2, §3
(§5) Human factors X, Xa, IXa, XIa, and XIIa are purchased from Enzyme Research Laboratories, South Bend, Ind.; human urokinase from Leo Pharmaceuticals, Denmark; and recombinant activated Protein C (aPC) is prepared at Eli Lilly and Co. substantially according to U.S. Pat. No. 4,981,952. Chromogenic substrates: N-Benzoyl-Ile-Glu-Gly-Arg-p-nitroanilide (for factor Xa); N-Cbz-D-Arg-Gly-Arg-p-nitroanilide (for factor IXa assay as the factor Xa substrate); Pyroglutamyl-Pro-Arg-p-nitroanilide (for Factor XIa and for aPC); H-D-Pro-Phe-Arg-p-nitroanilide (for factor XIIa); and Pyroglutamyl-Gly-Arg-p-nitroanilide (for urokinase); are purchased from KabiVitrum, Stockholm, Sweden, or from Midwest Biotech, Fishers, Ind. Bovine trypsin is purchased from Worthington Biochemicals, Freehold, N.J., and human plasma kallikrein from Kabi Vitrum, Stockholm, Sweden. Chromogenic substrate H-D-Pro-Phe-Arg-p-nitroanilide for plasma kallikrein is purchased from Kabi Vitrum, Stockholm, Sweden. N-Benzoyl-Phe-Val-Arg-p-nitroanilide, the substrate for human thrombin and for trypsin, is synthesized according to procedures described above for the compounds of the present invention, using known methods of peptide coupling from commercially available reactants or purchased from Midwest Biotech, Fishers, Ind.

Another assay concerns the target T3, factor Xa (Homo sapiens, UniProt P00742).
T3 construct: Human factors X, Xa, IXa, XIa, and XIIa are purchased; purchased Enzyme Research Laboratories, South Bend, Ind
Kind of assay: Serine protease selectivity, chromogenic substrate (Kass), factor Xa. Conditions: substrate N-Benzoyl-Ile-Glu-Gly-Arg-p-nitroanilide. Format: biochemical. As for the experimental part:
as §1, §2, §3, §5

Assay [1] concerns Human plasma. In words: Human plasma anticoagulation, activated partial thromboplastin time (APTT). Format: biochemical. The note with it: concentration required to double the APTT, linear extrapolation. As to the method:
(§6) Dog plasma and rat plasma is obtained from conscious mixed-breed hounds (either sex, Hazelton-LRE, Kalamazoo, Mich., U.S.A.) or from anesthetized male Sprague-Dawley rats (Harlan Sprague-Dawley, Inc., Indianapolis, Ind., U.S.A.) by venipuncture into 3.8 percent citrate. Fibrinogen is prepared from in-date ACD human blood as the fraction I-2 according to previous procedures and specifications. Smith, Biochem. J., 185, 1-11 (1980); and Smith, et al., Biochemistry, 11, 2958-2967 (1972). Human fibrinogen is also purchased as 98 percent pure/plasmin free from American Diagnostica, Greenwich, Conn. Coagulation reagents ACTIN, Thromboplastin, and Human plasma are from Baxter Healthcare Corp., Dade Division, Miami, Fla. Bovine thrombin from Parke-Davis ([…], Mich.) is used for coagulation assays in plasma.
(§7) Coagulation assay procedures are as previously described. Smith, et al., Thrombosis Research, 50, 163-174 (1988). A CoAScreener coagulation instrument (American LABor, Inc.) is used for all coagulation assay measurements. The prothrombin time (PT) is measured by adding 0.05 mL saline and 0.05 mL Thromboplastin-C reagent to 0.05 mL test plasma. The activated partial thromboplastin time (APTT) is measured by incubation of 0.05 mL test plasma with 0.05 mL Actin reagent for 120 seconds followed by 0.05 mL CaCl2 (0.02M). The thrombin time (TT) is measured by adding 0.05 mL saline and 0.05 mL thrombin (10 NIH units/mL) to 0.05 mL test plasma. The compounds of formula I are added to human or animal plasma over a wide range of concentrations to determine prolongation effects on the APTT, PT, and TT assays. Linear extrapolations are performed to estimate the concentrations required to double the clotting time for each assay.

For another assay, the target named is Human Thrombin (Homo sapiens, UniProt P00734). Kind of assay: Inhibition of amidase activity of thrombin (Kass). Format: biochemical. Conditions: apparent association constant, mean over a range of concentrations. As to the method: as §1
The Kass value is the hypothetical equilibrium constant for the reaction between thrombin and the test compound (I). [drawing 54]
as §2

In assay [2] the test system is Human plasma. Kind of assay: Human plasma anticoagulation, prothrombin time (PT). Format: biochemical. The note with it: concentration required to double the PT, linear extrapolation. As to the method: as §6, §7
Assay [3] has as its system Human plasma. In words: Human plasma anticoagulation, thrombin time (TT). It is filed as biochemical. The note with it: concentration required to double the thrombin time, linear extrapolation. As to the method:
as §6, §7

The next assay has as its target T4, t-PA (Homo sapiens, UniProt P00750).
T4 construct: purchased American Diagnostica, Greenwich, Conn
Kind of assay: Serine protease selectivity, chromogenic substrate (Kass), t-PA. The note with it: substrate H-D-Ile-Pro-Arg-p-nitroanilide. It is filed as biochemical. As to the method:
as §1, §2, §3, §4

The structures appear in SMILES notation.

T4 sequence (P00750 36-562): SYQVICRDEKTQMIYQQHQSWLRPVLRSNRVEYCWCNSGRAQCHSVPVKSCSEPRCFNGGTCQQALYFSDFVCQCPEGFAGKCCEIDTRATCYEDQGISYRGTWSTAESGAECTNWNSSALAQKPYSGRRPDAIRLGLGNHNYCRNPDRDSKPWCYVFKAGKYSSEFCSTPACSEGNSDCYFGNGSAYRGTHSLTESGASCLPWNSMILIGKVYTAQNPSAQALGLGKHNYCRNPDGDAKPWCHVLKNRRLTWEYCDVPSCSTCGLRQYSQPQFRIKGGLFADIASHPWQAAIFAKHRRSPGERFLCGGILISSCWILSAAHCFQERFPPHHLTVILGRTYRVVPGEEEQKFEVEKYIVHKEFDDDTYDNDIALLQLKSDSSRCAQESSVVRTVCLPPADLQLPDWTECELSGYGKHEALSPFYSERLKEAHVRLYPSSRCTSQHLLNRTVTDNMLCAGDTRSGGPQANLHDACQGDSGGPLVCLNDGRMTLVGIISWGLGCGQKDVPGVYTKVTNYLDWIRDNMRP
T3 sequence (P00742 235-488 limits assumed): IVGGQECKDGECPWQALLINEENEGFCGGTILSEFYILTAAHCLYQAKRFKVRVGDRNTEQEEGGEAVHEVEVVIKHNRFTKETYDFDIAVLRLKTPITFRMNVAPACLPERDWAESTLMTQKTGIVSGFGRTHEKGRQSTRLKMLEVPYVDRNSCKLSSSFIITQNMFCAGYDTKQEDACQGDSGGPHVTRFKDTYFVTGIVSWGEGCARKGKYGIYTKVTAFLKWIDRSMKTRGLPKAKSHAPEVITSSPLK
T3 sequence (P00742 41-179 partner limits assumed): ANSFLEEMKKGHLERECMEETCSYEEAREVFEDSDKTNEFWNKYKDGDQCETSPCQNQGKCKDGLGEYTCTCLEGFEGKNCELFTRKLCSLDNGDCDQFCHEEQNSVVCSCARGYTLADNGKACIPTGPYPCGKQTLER
T1 sequence (P00747 581-810 limits assumed): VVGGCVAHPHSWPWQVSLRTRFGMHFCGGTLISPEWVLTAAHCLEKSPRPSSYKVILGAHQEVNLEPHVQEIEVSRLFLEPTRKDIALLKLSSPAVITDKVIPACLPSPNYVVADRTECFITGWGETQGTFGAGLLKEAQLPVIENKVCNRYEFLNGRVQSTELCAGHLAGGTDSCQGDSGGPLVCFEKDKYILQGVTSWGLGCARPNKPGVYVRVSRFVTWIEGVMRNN
T1 sequence (P00747 97-580 partner limits assumed): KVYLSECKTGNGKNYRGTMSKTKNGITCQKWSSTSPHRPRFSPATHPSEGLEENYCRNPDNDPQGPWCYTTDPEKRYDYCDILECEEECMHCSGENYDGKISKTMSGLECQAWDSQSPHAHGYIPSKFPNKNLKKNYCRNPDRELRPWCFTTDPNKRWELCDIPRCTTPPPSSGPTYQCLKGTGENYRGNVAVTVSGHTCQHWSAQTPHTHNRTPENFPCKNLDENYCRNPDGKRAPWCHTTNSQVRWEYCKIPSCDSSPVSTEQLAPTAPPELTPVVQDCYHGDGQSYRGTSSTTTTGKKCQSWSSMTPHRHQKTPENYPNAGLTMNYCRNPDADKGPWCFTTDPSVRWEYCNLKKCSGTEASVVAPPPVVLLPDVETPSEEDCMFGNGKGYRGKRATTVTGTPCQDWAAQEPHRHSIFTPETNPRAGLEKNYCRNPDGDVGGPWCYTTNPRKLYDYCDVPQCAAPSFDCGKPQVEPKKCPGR

Turning to `Cl.Cl.N=C(N)NCCC[C@@H](C=O)NC(=O)[C@@H]1C[C@H](Oc2ccc(C(=O)O)cc2)CN1C(=O)[C@H]1CCCCN1` (relative stereo) [Example 18, D-hPro-Pro(4-cis-(4-COOH-phenoxy))-ArgH.2 HCl], the “Enzyme Kass, Plasmin” value on Plasmin came out at 0.37 L/mol × 10^6. Besides, the “Enzyme Kass, Trypsin” value at Trypsin was 52.2 L/mol × 10^6. Further, on factor Xa, the “Enzyme Kass, Xa” value was found to be 0.58 L/mol × 10^6. Further, in the assay with Human plasma [1], the “2x Clotting time, APTT” value is given as 5,969 ng/mL. Also, the “Enzyme Kass, Human Thrombin” value at Human Thrombin is reported as 4.5 L/mol × 10^6. The “2x Clotting time, PT” value in the assay on Human plasma [2] is 10,783 ng/mL. Besides, the “2x Clotting time, TT” value in the assay with Human plasma [3] is recorded as 248 ng/mL. Besides, the “Enzyme Kass, t-PA” value on t-PA is on record as 0.013 L/mol × 10^6.
As to `Cl.Cl.N=C(N)NCCC[C@@H](C=O)NC(=O)[C@@H]1C[C@H](Oc2cccc(C(=O)O)c2)CN1C(=O)[C@H]1CCCCN1` (relative stereo) [Example 19, D-hPro-Pro(4-cis-(3-COOH-phenoxy))-ArgH.2 HCl], on Plasmin, the “Enzyme Kass, Plasmin” value is 0.50 L/mol × 10^6. Also, the “Enzyme Kass, Trypsin” value at Trypsin is reported as 49.3 L/mol × 10^6. The “Enzyme Kass, Xa” value on factor Xa was found to be 1.30 L/mol × 10^6. In the assay with Human plasma [1], the “2x Clotting time, APTT” value was 3,497 ng/mL. Also, at Human Thrombin, the “Enzyme Kass, Human Thrombin” value came to 2.8 L/mol × 10^6. Further, the “2x Clotting time, PT” value in the assay with Human plasma [2] is 8,822 ng/mL. Moreover, the “2x Clotting time, TT” value with Human plasma [3] was 345 ng/mL. On t-PA, the “Enzyme Kass, t-PA” value is 0.022 L/mol × 10^6.
On to `CCS(=O)(=O)N[C@H](Cc1ccccc1)C(=O)N1[C@H](C(=O)N[C@H](C=O)CCCNC(=N)N)C[C@@H]2CCCC[C@@H]21.Cl` (relative stereo) [Example 23, EtSO2 -D-Phe-cis-Ohi-ArgH.HCl], for which, on Plasmin, the “Enzyme Kass, Plasmin” value was found to be 28.2 L/mol × 10^6. For the same compound, the “Enzyme Kass, Trypsin” value at Trypsin is 312 L/mol × 10^6. Besides, the “Enzyme Kass, Xa” value at factor Xa was 4,37 L/mol × 10^6. In addition, the “2x Clotting time, APTT” value in the assay with Human plasma [1] was 312 ng/mL. Moreover, at Human Thrombin, the “Enzyme Kass, Human Thrombin” value worked out at 957 L/mol × 10^6. Moreover, in the assay on Human plasma [2], the “2x Clotting time, PT” value is 746 ng/mL. Also, the “2x Clotting time, TT” value in the assay with Human plasma [3] is reported as 19 ng/mL. Further, the “Enzyme Kass, t-PA” value on t-PA is 2.07 L/mol × 10^6.
As for `Cl.N=C(N)NCCC[C@@H](C=O)NC(=O)[C@@H]1C[C@@H]2CCCC[C@@H]2N1C(=O)[C@@H](Cc1ccccc1)NCC(=O)O` (relative stereo) [Example 24, HOOCCH2 -D-Phe-cis-Ohi-ArgH.HCl], the “Enzyme Kass, Plasmin” value on Plasmin was 16.3 L/mol × 10^6. Also, the “Enzyme Kass, Trypsin” value at Trypsin stood at 424 L/mol × 10^6. At factor Xa, the “Enzyme Kass, Xa” value amounted to 1.70 L/mol × 10^6. In addition, the “2x Clotting time, APTT” value in the assay on Human plasma [1] is 490 ng/mL. Besides, the “Enzyme Kass, Human Thrombin” value at Human Thrombin was 1,160 L/mol × 10^6. Moreover, the “2x Clotting time, PT” value in the assay with Human plasma [2] is listed as 727 ng/mL. In the assay on Human plasma [3], the “2x Clotting time, TT” value is 11 ng/mL. Also, the “Enzyme Kass, t-PA” value at t-PA was 0.075 L/mol × 10^6.
With `Cl.Cl.NC(N)=NCCCC(C=O)NC(=O)C1CC(Oc2ccccc2)CN1C(=O)C1NCCC2CCCCC21` [Example 14, L-1-Piq-Pro(4-cis-phenoxy)-ArgH.2 HCl], the “Enzyme Kass, Plasmin” value at Plasmin turned out to be 0.34 L/mol × 10^6. In addition, on Trypsin, the “Enzyme Kass, Trypsin” value turned out to be 6.2 L/mol × 10^6. For the same compound, the “Enzyme Kass, Xa” value on factor Xa is 0.48 L/mol × 10^6. In addition, in the assay on Human plasma [1], the “2x Clotting time, APTT” value is on record as 9,000 ng/mL. For the same compound, at Human Thrombin, the “Enzyme Kass, Human Thrombin” value is given as 8.7 L/mol × 10^6. The “2x Clotting time, PT” value in the assay with Human plasma [2] is 18,000 ng/mL. For the same compound, the “2x Clotting time, TT” value in the assay on Human plasma [3] is on record as 460 ng/mL. Besides, on t-PA, the “Enzyme Kass, t-PA” value was 0.002 L/mol × 10^6.
Consider `Cl.Cl.N=C(N)NCCCC(C=O)NC(=O)C1CC2CCCCC2N1C(=O)C1NCCC2CCCCC21` [Example 21, L-1-cis-Piq-cis-Ohi-ArgH.2 HCl], for which the “Enzyme Kass, Plasmin” value at Plasmin (HCl) is recorded as 0.20 L/mol × 10^6. Also, the “Enzyme Kass, Trypsin” value on Trypsin (HCl) stood at 3.6 L/mol × 10^6. Moreover, at factor Xa (HCl), the “Enzyme Kass, Xa” value is on record as 0.03 L/mol × 10^6. Besides, the “2x Clotting time, APTT” value in the assay with Human plasma [1] (HCl) was 16,234 ng/mL. The “Enzyme Kass, Human Thrombin” value on Human Thrombin (HCl) amounted to 3.1 L/mol × 10^6. For the same compound, the “2x Clotting time, PT” value in the assay with Human plasma [2] (HCl) is listed as 30,776 ng/mL. Further, the “2x Clotting time, TT” value with Human plasma [3] (HCl) is reported as 1,199 ng/mL. Also, the “Enzyme Kass, t-PA” value on t-PA (HCl) worked out at 0.001 L/mol × 10^6.
